Measurements reported in patent US8912181B2 (Taiho Pharmaceutical Co., Ltd., priority 2011, dated 2014).

How the values were obtained:
[1] = target: human HSP90 alpha protein (N-terminal, amino acids 2 to 236) (Homo sapiens (Human), UniProt P07900); test: Determination of HSP90-binding activity (AlphaScreen competitive assay with biotinylated geldanamycin); conditions: inhibition of binding of biotinylated geldanamycin to purified HSP90 N-terminal protein, read-out: HSP-binding activity IC50
Description: First, a purified HSP90 solution was prepared as follows: a human HSP90 alpha gene (NCBI Reference Sequence accession no. NM-005348) region corresponding to amino acids 2 to 236 of human HSP90 alpha protein (NCBI Reference Sequence accession no. NP-005339; full length: 732 amino acids) was inserted to pET-19b (Novagen; Merck KGaA) to construct a plasmid pET-HS[…] for expression of the HSP90 N-terminal protein having a His-tag at the N-terminus. E. coli (BL21(DE3), Stratagene Corp.) was transformed with pET-HS[…] and then cultured at 37° C. for 4 hours in the presence of 0.5 mM isopropyl-beta-D-thiogalactopyranoside (Sigma-Aldrich Corp.). The collected E. coli was suspended in a lysis buffer (50 mM Tris-HCl (pH 7.5), 200 mM NaCl) and sonicated. The sonicated cell solution was centrifuged (40,000×g, 20 minutes), and the supernatant was used as a crude extract. This crude extract was fractionated using Ni Sepharose High Performance (GE Healthcare Japan Corp.) chromatography and HiLoad 26/60 Superdex 75 pg (GE Healthcare Japan Corp.). Then, a fraction of HSP90 protein concentrates was prepared in a solution containing 50 mM Tris-HCl (pH 7.5) and 20% glycerol as a purified HSP90 solution. The purified HSP90 solution was divided and stored at -80° C. until use. HSP90-binding activity was determined by an AlphaScreen competitive assay system. […] After reaction at room temperature for 2 hours, biotinylated geldanamycin was added thereto at a concentration of 40 nM/well and further reacted for 1 hour. Detection mix (20 mM HEPES-KOH (pH 7.5), 0.5% BSA, 0.04 mg/mL Nickel Chelate Acceptor beads, 0.04 mg/mL Streptavidin-coated Donor beads) (#6760619C, PerkinElmer, Inc.) was added to each well in an amount equal to the amount of the reaction solution and reacted at room temperature for 1 hour in the dark. Then, fluorescence intensity was measured using Multilabel Plate Reader EnVision (PerkinElmer, Inc.). Percent inhibition (%) of the binding of biotinylated geldanamycin by each compound of the present invention was determined according to the formula shown below with the fluorescence signal of no test substance addition group as a control. […] Percent inhibition (%)=(C-T)/C×100, wherein T: Signal of well with test substance addition C: Signal of well without test substance addition.

SK-BR-3 cells = test: Determination of cell growth inhibition (crystal violet staining method); format: cell-based; conditions: Homo sapiens; breast cancer cells SK-BR-3, 72 hours culture with test substance
Description: Cell growth was assayed by a crystal violet staining method. SK-BR-3 cells (HTB-30) purchased from American Type Culture Collection were inoculated at a concentration of 5,000 cells/well to a 96-well plate (#353075, BD Biosciences). After culture at 37° C. for 24 hours in a 5% CO2 incubator, each test substance was added thereto, and the cells were further cultured for 72 hours. A 25% glutaraldehyde solution (#17025-25, Nacalai Tesque, Inc.) was added thereto at a concentration of 20 μL/well per 200 μL of the medium, and the plate was incubated at room temperature for 20 minutes to fix the cells. The plate was washed with water and dried. Then, a solution containing 0.05% crystal violet (#038-17792, Wako Pure Chemical Industries, Ltd.) and 20% methanol was added thereto at a concentration of 100 μL/well, and the plate was incubated at room temperature for 20 minutes to stain the cells. The plate was washed with water and dried. A mixed solution of 0.05 M NaH2PO4 and ethanol (mixed in equal amounts) was added thereto at a concentration of 100 μL/well. Absorbance was measured at 540 nm using a microplate reader (MTP-450, Corona Electric Co., Ltd.) and used as an index for the number of cells per well. Percent inhibition (%) of cell growth by each compound of the present invention was determined according to the formula shown below with the absorbance of no drug addition group as a control. […] Percent inhibition (%)=(C−T)/C×100, wherein T: Absorbance of well with test substance addition C: Absorbance of well without test substance addition.

Row | SMILES | IC50 [1] [nM] | IC50 (SK-BR-3 cells) [nM]
1 | NC(=O)c1ccc(-c2cccc3c(-c4cnc5ccccc5c4)nccc23)cc1NC1CCC(O)CC1 (stereo not shown) [Comp. Ex. 1, 2-(4-Hydroxycyclohexylamino)-4-(1-(quinolin-3-yl)isoquinolin-5-yl)benzamide, reference compound] | > 100000 | 8420
2 | NC(=O)c1ccc(-c2cccc3c(-c4cnc5ccccc5c4)ncnc23)cc1NC1CCC(O)CC1 (stereo not shown) [Comp. Ex. 2, 2-(4-Hydroxycyclohexylamino)-4-(4-(quinolin-3-yl)quinazolin-8-yl)benzamide, reference compound] | > 100000 | > 10000
3 | CCNc1cc(-c2cccc3c(-n4cnc(-c5cnn(C)c5)c4)nccc23)ccc1C(N)=O [Comp. Ex. 3, 2-(Ethylamino)-4-(1-(4-(1-methyl-1H-pyrazol-4-yl)-1H-imidazol-1-yl)isoquinolin-5-yl)benzamide, reference compound] | > 100000 | 7630
4 | CCNc1cc(-c2nccc3c(-n4cnc(-c5cnn(C)c5)c4)cccc23)ccc1C(N)=O [Example 1, 2-(Ethylamino)-4-(5-(4-(1-methyl-1H-pyrazol-4-yl)-1H-imidazol-1-yl)isoquinolin-1-yl)benzamide] |  | 120
5 | NC(=O)c1ccc(-c2nccc3c(-c4cncc(N)c4)cccc23)cc1NC1CCC(O)CC1 (stereo not shown) [Example 2, 4-(5-(5-Aminopyridin-3-yl)isoquinolin-1-yl)-2-(4-hydroxycyclohexylamino)benzamide] |  | 150
6 | CCNc1cc(-c2cc(C(F)(F)F)nc3c(-n4cnc(-c5cnn(C)c5)c4)cccc23)ccc1C(N)=O [Example 3, 2-(Ethylamino)-4-(8-(4-(1-methyl-1H-pyrazol-4-yl)-1H-imidazol-1-yl)-2-(trifluoromethyl)quinolin-4-yl)benzamide] | 190 | 10
7 | Cn1cc(-c2cn(-c3cccc4c(-c5ccc(C(N)=O)c(N)c5)nc(C(F)(F)F)nc34)cn2)cn1 [Example 4, 2-Amino-4-(8-(4-(1-methyl-1H-pyrazol-4-yl)-1H-imidazol-1-yl)-2-(trifluoromethyl)quinazolin-4-yl)benzamide] | 340 | 280
8 | CC(C)(C)Nc1cc(-c2cc(C(F)(F)F)nc3c(-c4cnc5ccccc5c4)cccc23)ccc1C(N)=O [Example 5, 2-(Tert-butylamino)-4-(2′-(trifluoromethyl)-3,8′-biquinolin-4′-yl)benzamide] | 1440 | 90
9 | NC(=O)c1ccc(-c2nccc3c(-c4cnc5ccccc5c4)cccc23)cc1NC1CCC(O)CC1 (stereo not shown) [Example 6, 2-(4-Hydroxycyclohexylamino)-4-(5-(quinolin-3-yl)isoquinolin-1-yl)benzamide] | 170 | 30
10 | Cc1cc2c(-c3cnc4ccccc4c3)cccc2c(-c2ccc(C(N)=O)c(NC3CCC(O)CC3)c2)n1 (stereo not shown) [Example 7, 2-(4-Hydroxycyclohexylamino)-4-(3-methyl-5-(quinolin-3-yl)isoquinolin-1-yl)benzamide] | 150 | 10
11 | Cc1cc2c(-c3cnc4ccccc4c3)cccc2c(-c2ccc(C(N)=O)c(NC3CCC(O)CC3)c2)[n+]1[O-] (stereo not shown) [Example 8, 1-(4-Carbamoyl-3-(4-hydroxycyclohexylamino)phenyl)-3-methyl-5-(quinolin-3-yl)isoquinoline-2-oxide] | 100 | 20
12 | Cc1ccc2ncc(-c3cccc4c(-c5ccc(C(N)=O)c(NC6CCC(O)CC6)c5)nccc34)cc2c1 (stereo not shown) [Example 9, 2-(4-Hydroxycyclohexylamino)-4-(5-(6-methylquinolin-3-yl)isoquinolin-1-yl)benzamide] | 270 | 50
13 | Cc1ccc2cc(-c3cccc4c(-c5ccc(C(N)=O)c(NC6CCC(O)CC6)c5)nccc34)cnc2c1 (stereo not shown) [Example 11, 2-(4-Hydroxycyclohexylamino)-4-(5-(7-methylquinolin-3-yl)isoquinolin-1-yl)benzamide] | 480 | 110
14 | NC(=O)c1ccc(-c2nccc3c(-c4cnc5nc[nH]c5c4)cccc23)cc1NC1CCC(O)CC1 (stereo not shown) [Example 12] | 70 | 170
15 | NC(=O)c1ccc(-c2nccc3c(-c4cnc5nccnc5c4)cccc23)cc1NC1CCC(O)CC1 (stereo not shown) [Example 13, 2-(4-Hydroxycyclohexylamino)-4-(5-(pyrido[2,3-b]pyrazin-7-yl)isoquinolin-1-yl)benzamide] | 450 | 580
16 | NC(=O)c1ccc(-c2nccc3c(-c4cnc5[nH]ccc5c4)cccc23)cc1NC1CCC(O)CC1 (stereo not shown) [Example 14, 4-(5-(1H-Pyrrolo[2,3-b]pyridin-5-yl)isoquinolin-1-yl)-2-(4-hydroxycyclohexylamino)benzamide] | 1500 | 340
17 | NC(=O)c1ccc(-c2nccc3c(-c4cccnc4)cccc23)cc1NC1CCC(O)CC1 (stereo not shown) [Example 15, 2-(4-Hydroxycyclohexylamino)-4-(5-(pyridin-3-yl)isoquinolin-1-yl)benzamide] | 140 | 210
18 | NCC(=O)OC1CCC(Nc2cc(-c3nccc4c(-c5cnc6ccccc6c5)cccc34)ccc2C(N)=O)CC1 (stereo not shown) [Example 33, 4-(2-Carbamoyl-5-(5-(quinolin-3-yl)isoquinolin-1-yl)phenylamino)cyclohexyl-2-aminoacetate] |  | 80
19 | CC(C)Cn1cc(-c2cn(-c3cccc4c(-c5ccc(C(N)=O)c(NC6CCC(O)CC6)c5)nccc34)cn2)cn1 (stereo not shown) [Example 52, 2-(4-Hydroxycyclohexylamino)-4-(5-(4-(1-isobutyl-1H-pyrazol-4-yl)-1H-imidazol-1-yl)isoquinolin-1-yl)benzamide] |  | 110
20 | NC(=O)c1ccc(-c2nccc3c(-n4cnc(Br)c4)cccc23)cc1NC1CCC(O)CC1 (stereo not shown) [Example 54, 4-(5-(4-Bromo-1H-imidazol-1-yl)isoquinolin-1-yl)-2-(4-hydroxycyclohexylamino)benzamide] |  | 480
21 | Cn1cc(-c2cn(-c3cccc4c(-c5ccc(C(N)=O)c(NC6CCCCCC6)c5)nccc34)cn2)cn1 [Example 63, 2-(Cycloheptylamino)-4-(5-(4-(1-methyl-1H-pyrazol-4-yl)-1H-imidazol-1-yl)isoquinolin-1-yl)benzamide] |  | 30
22 | Cn1cc(-c2cn(-c3cccc4c(-c5ccc(C(N)=O)c(NCC6CC6)c5)cc(C(F)(F)F)nc34)cn2)cn1 [Example 65, 2-(Cyclopropylmethylamino)-4-(8-(4-(1-methyl-1H-pyrazol-4-yl)-1H-imidazol-1-yl)-2-(trifluoromethyl)quinolin-4-yl)benzamide] |  | 10
23 | CCNc1cc(-c2cc(C(F)(F)F)nc3c(-n4cnc(-c5cnn(C(F)F)c5)c4)cccc23)ccc1C(N)=O [Example 91, 4-(8-(4-(1-Difluoromethyl-1H-pyrazol-4-yl)-1H-imidazol-1-yl)-2-(trifluoromethyl)quinolin-4-yl)-2-(ethylamino)benzamide] |  | 10
24 | Cn1cc(-c2cn(-c3cccc4c(-c5ccc(C(N)=O)c(N)c5)cc(C5CC5)nc34)cn2)cn1 [Example 106, 2-Amino-4-(2-cyclopropyl-8-(4-(1-methyl-1H-pyrazol-4-yl)-1H-imidazol-1-yl)quinolin-4-yl)benzamide] | 100 | 
25 | CC(C)(C)Nc1cc(-c2cc(C(F)(F)F)nc3c(-n4cnc(-c5ccccc5)c4)cccc23)ccc1C(N)=O [Example 107, 2-(Tert-butylamino)-4-(8-(4-phenyl-1H-imidazol-1-yl)-2-(trifluoromethyl)quinolin-4-yl)benzamide] |  | 240
